Measured values taken from patent US20080076847A1, “Polymerizable compositions with acylgermanes as initiatiors” (IVOCLAR VIVADENT AG, priority 2006, published 2008).
Where two headings read alike, the source gives them in different places.

Key:
[1] = known photoinitiators, longest-wave maximum; cited from earlier work
[2] = Photoinitiator activity by photo-DSC
Method: The activity of the photoinitiators was measured by means of photo-DSC (Differential Scanning Calorimetry) measurements on a DSC-50 device from Shimadzu, wherein the samples were irradiated alternatively with different dental lamps (Astalis 3: halogen lamp, wavelength range 400-500 nm, intensity 530 mW/cm^2; Bluephase C8: LED, wavelength range 430-490 nm, intensity 1100 mW/cm^2; Ivoclar Vivadent AG). The activity is characterized by the time of peak maximum (tmax), the polymerization rate (RP) which corresponds to the peak height, and the double bond conversion (DBC). The respective photoinitiators were dissolved in a resin mixture of D3MA:UDMA:bis-GMA=1:1:1 and then measured in an aluminium crucible by means of DSC. […]

[3] = UV-VIS absorption maximum; format: physicochemical; details: longest-wave maximum
[4] = Astralis 3 lamp (400-500 nm), 0.022 mmol PI per gram of resin
[5] = Bluephase C8 lamp (430-490 nm), 0.022 mmol PI per gram of resin

| Compound | absorption maximum [1] [nm] | DBC (double bond conversion) [2, 4] [%] | Rp × 10^−3 (polymerization rate) [2, 4] | DBC (double bond conversion) [2, 5] [%] | Rp × 10^−3 (polymerization rate) [2, 5] | DBC (double bond conversion) ([2]; PI concentration 0.0014 mmol/g) [%] | Rp × 10^−3 (polymerization rate) ([2]; PI concentration 0.0014 mmol/g) | DBC (double bond conversion) ([2]; PI concentration 0.0055 mmol/g) [%] | Rp × 10^−3 (polymerization rate) ([2]; PI concentration 0.0055 mmol/g) | absorption maximum [3] [nm] | curing time compared with campherquinone/amine ([2]; resin mixture D3MA:UDMA:bis-GMA=1:1:1) | polymerization rate (Rp) compared with camphorquinone in combination with an amine accelerator ([2]; resin mixture D3MA:UDMA:bis-GMA=1:1:1, same formulation) |
| --- | --- | --- | --- | --- | --- | --- | --- | --- | --- | --- | --- | --- |
| CC12CCC(C(=O)C1=O)C2(C)C (stereo not drawn) [camphorquinone] | 468 | – | – | – | – | – | – | – | – | – | – | – |
| Cc1cc(C)c(C(=O)P(=O)(C(=O)c2c(C)cc(C)cc2C)c2ccccc2)c(C)c1 [Irg 819, bis(2,4,6-trimethylbenzoyl)phenylphosphine oxide, reference compound] | 397 | 59 | 67.5 mol/(l × s) | 45 | 43.5 mol/(l × s) | 42 | 30.4 mol/(l × s) | 48 | 48.3 mol/(l × s) | – | – | – |
| [CH3][Ge]([CH3])([CH3])[C](=O)c1ccccc1 [Mono-AG, benzoyltrimethylgermanium] | – | 56 | 51.0 mol/(l × s) | 49 | 48.3 mol/(l × s) | 30 | 16.4 mol/(l × s) | 48 | 36.2 mol/(l × s) | 411.5 | – | – |
| C[CH2][Ge]([CH2]C)([C](=O)c1ccccc1)[C](=O)c1ccccc1 [Bis-AG, bisbenzoyldiethylgermanium] | – | 84 | 99.2 mol/(l × s) | 72 | 98.5 mol/(l × s) | 56 | 61.0 mol/(l × s) | 66 | 85.6 mol/(l × s) | 418.5 | halved | almost double |
